Experimental data published in patent US7919127B2, “Pulsatilla spp. extracts effective in brain function” (priority 2005, dated 2011).
Values joined by “and” are separate entries in the source; they are usually repeats but may differ in a detail not shown here. Identical values can stand only once.

How the values were obtained:
[1] = test system: α-secretase; assay: Increase of α-secretase activity (sAPPα amount, western blot densitometry, W4 cell line); assay type: cell-based; conditions: positive control, final concentration 1 mM, W4 cells, negative control average = 100.0
Procedure: To study the effect of 70% methanol solution fraction obtained from Example 2 on the above-mentioned APP process, an experiment was conducted as follows using W4 cell line which produces APP in large amount.
The cells of W4 cell line were treated with 70% methanol solution fraction and then cultured for about 12 hours.

[2] = test system: rats treated with scopolamine; assay: Passive avoidance test, scopolamine-induced memory impairment; assay type: in vivo, rat; conditions: oral, 30 mg/L; untreated control = 100%, scopolamine group = 0%
Description: The experimental device used was a shuttle box 50 cm (W)×15 cm (L)×40 cm (H). The shuttle box was divided into two rooms via a guillotine door, where one room was a light room provided with illumination while the other room was a dark room covered entirely with a black cloth thereby allowing the difference in illuminating effect. First, a rat was placed in the light room and the guillotine door was opened while the light was being turned on. Then, the rat entered the dark room within 20 seconds to seek a dark place by instinct and as soon as the rat entered the dark room the guillotine door was closed. […] The next day, the above trained rats were placed again into the light room with the light on and allowed to enter the dark room. Here, the rats were subject to an electric shock of 0.8 mA for 3 seconds via an electronic grid installed on the bottom of the room. Twenty four hours after the above acquisition trial, the rats were again placed into the light room with the light on and allowed to enter the dark room. Here, the normal rats hesitated to enter the dark room by remembering the electric shock of the previous day. The latency time was measured by setting up the maximum latency time at 300 seconds. […]

Row | Structure (SMILES) | Relative Density (sAPPα), Average ([1]; average of 3 trials) | Relative Density (sAPPα) ([1]; individual trials) | prevention of memory impairment [2]
1 | CCCC(=O)O[C@@H]1[C@@H](C)[C@@]2(O)[C@@H](C=C(CO)C[C@]3(O)C(=O)C(C)=C[C@@H]23)[C@@H]2C(C)(C)[C@]12OC(=O)CCC [PDBu, Phorbol 12,13-dibutyrate] | 289.3 | 226.5 and 314.1 and 327.2 | –
2 | Nc1c2c(nc3ccccc13)CCCC2 [tacrine] | – | – | 35%
